Laboratory results from ChEMBL document CHEMBL1149015, “New taxanes from Taxus brevifolia, 2” (1986).
≈ marks a conversion by molar mass, not a printed value.

Tested on: KB
Assay: Cytotoxicity against human KB cells
Assay type: functional

CC(=O)O[C@H]1C(=O)[C@]2(C)[C@H](O)C[C@H]3OC[C@@]3(OC(C)=O)[C@H]2[C@H](OC(=O)c2ccccc2)[C@]2(O)C[C@H](OC(=O)[C@H](O)[C@@H](NC(=O)c3ccccc3)c3ccccc3)C(C)=C1C2(C)C
ED50: 3 ×10⁻⁵ ug/ml

CC(=O)O[C@@]12CO[C@@H]1C[C@H](O)[C@@]1(C)C(=O)C(=O)C3=C(C)[C@@H](OC(=O)[C@H](O)[C@@H](NC(=O)c4ccccc4)c4ccccc4)C[C@@](O)([C@@H](OC(=O)c4ccccc4)[C@H]21)C3(C)C
EC50 (Homo sapiens, KB, read-out: ED50 (the source's name)): 0.02 µg/mL (≈ 0.0247 µM)

CC(=O)O[C@H]1C(=O)[C@@]2(C)[C@H]([C@H](OC(=O)c3ccccc3)[C@]3(O)C[C@H](OC(=O)[C@H](O)[C@@H](NC(=O)c4ccccc4)c4ccccc4)C(C)=C1C3(C)C)[C@]1(OC(C)=O)CO[C@@H]1C[C@@H]2O [PACLITAXEL]
ED50: 1 ×10⁻⁵ ug/ml
